Reference: the supplement of paper PMC13380429

Assays:
Details in all cases: 72 h
Caco-2 [1] = test: cell viability relative to DMSO; higher = less toxic
Calu-3 [2] = test: as above
HepG2 [3] = test: as above
U2OS [4] = test: as above
Vero E6 [5] = test: as above
Caco-2 [6] = test: relative viability EC50 (midpoint between 100% and the lowest measured viability); higher = less toxic
Calu-3 [7] = test: as above
HepG2 [8] = test: as above
U2OS [9] = test: as above
Vero E6 [10] = test: as above
Caco-2 [11] = test: drug sensitivity score (DSS) for viability; higher = more toxic; extreme values may be limits of the assay
Calu-3 [12] = test: as above
HepG2 [13] = test: as above
U2OS [14] = test: as above
Vero E6 [15] = test: as above

SMILES	cell viability (Caco-2 [1]; 1 nM) [%]	cell viability (Caco-2 [1]; 10 nM) [%]	cell viability (Caco-2 [1]; 100 nM) [%]	cell viability (Caco-2 [1]; 1000 nM) [%]	cell viability (Caco-2 [1]; 10000 nM) [%]	cell viability (Calu-3 [2]; 1 nM) [%]	cell viability (Calu-3 [2]; 10 nM) [%]	cell viability (Calu-3 [2]; 100 nM) [%]	cell viability (Calu-3 [2]; 1000 nM) [%]	cell viability (Calu-3 [2]; 10000 nM) [%]	cell viability (HepG2 [3]; 1 nM) [%]	cell viability (HepG2 [3]; 10 nM) [%]	cell viability (HepG2 [3]; 100 nM) [%]	cell viability (HepG2 [3]; 1000 nM) [%]	cell viability (HepG2 [3]; 10000 nM) [%]	cell viability (U2OS [4]; 1 nM) [%]	cell viability (U2OS [4]; 10 nM) [%]	cell viability (U2OS [4]; 100 nM) [%]	cell viability (U2OS [4]; 1000 nM) [%]	cell viability (U2OS [4]; 10000 nM) [%]	cell viability (Vero E6 [5]; 1 nM) [%]	cell viability (Vero E6 [5]; 10 nM) [%]	cell viability (Vero E6 [5]; 100 nM) [%]	cell viability (Vero E6 [5]; 1000 nM) [%]	cell viability (Vero E6 [5]; 10000 nM) [%]	relative viability EC50 (Caco-2 [6]) [µM]	relative viability EC50 (Calu-3 [7]) [µM]	relative viability EC50 (HepG2 [8]) [µM]	relative viability EC50 (U2OS [9]) [µM]	relative viability EC50 (Vero E6 [10]) [µM]	drug sensitivity score (Caco-2 [11])	drug sensitivity score (Calu-3 [12])	drug sensitivity score (HepG2 [13])	drug sensitivity score (U2OS [14])	drug sensitivity score (Vero E6 [15])
C[C@@H]1C[C@H]2[C@@H]3C[C@H](F)C4=CC(=O)C=C[C@]4(C)[C@@]3(F)[C@@H](O)C[C@]2(C)[C@@]1(O)C(=O)COC(=O)C(C)(C)C [flumethasone-pivalate]	121	103	122	94.9	89	113	102	106	94.3	100	82.4	100	87.4	103	82.6	106	102	102	97.6	101	96.6	95.3	101	96.3	84.5	> 10	> 10	> 10	> 10	> 10	0.1	0	0.3	0	0.6
c1coc(-c2nnc3sc(C4CCCCC4)nn23)c1 [cardionogen-1]	100	94.7	104	81.1	89.7	109	97.4	109	102	97.1	98.7	97.1	99.4	88.3	44.6	95	100	95.9	97.8	93.3	98.3	97.1	95.5	98	86.6	> 10	> 10	1.69	> 10	> 10	2.2	0	4.9	0	0.3
NC(=O)CN1Cc2ccccc2OC1=O [caroxazone]	109	102	101	96	104	103	93.2	93.7	105	101	101	94.6	101	93.1	100	100	99	101	95.3	102	99.5	99.8	101	96.9	96.4	> 10	> 10	> 10	> 10	> 10	0	0	0	0	0
CC(=O)O[C@H]1Cc2ccccc2N(C(N)=O)c2ccccc21 [eslicarbazepine-acetate]	104	99.9	91.3	95.5	89	98.9	98.4	108	102	111	90.4	85.9	95.9	93.8	101	97.5	93.6	95.2	96.7	101	96.9	99.7	96.3	98.9	98.2	> 10	> 10	> 10	> 10	> 10	0	0	0	0	0
Nc1ncnc2c1ncn2[C@@H]1O[C@H](COP(=O)(O)OP(=O)(O)OP(=O)(O)OP(=O)(O)OC[C@H]2O[C@@H](n3cnc4c(N)ncnc43)[C@H](O)[C@@H]2O)[C@@H](O)[C@H]1O [diadenosine-tetraphosphate]	99.4	97.8	99.3	102	107	106	104	94.9	89.6	92.4	94.6	101	114	102	104	94.5	98.1	97.7	97.5	107	99	102	96.5	102	97	> 10	> 10	> 10	> 10	> 10	0	0.1	0	0	0
C=CCN1CCN(c2nc3ccccc3nc2C#N)CC1 [3-AQC]	102	99.9	103	101	95.2	94.7	98	101	103	98.1	94	104	96.6	97.5	94.2	100	101	101	97.9	97.1	94.9	102	92.6	104	108	> 10	> 10	> 10	> 10	> 10	0	0	0	0	0
CC[N+](C)(CC)CCOC(=O)C(O)(c1ccccc1)C1CCCCC1 (stereo not given) [oxyphenonium]	88.6	98.4	88.7	101	95.6	92.9	106	97.5	99.2	87.2	90.4	94.1	98.1	86.2	99.4	97.8	100	98.8	98.3	96.6	95.9	97.2	100	99.4	96.8	> 10	> 10	> 10	> 10	> 10	0	0.1	0	0	0
CC(C)CCNC(=O)[C@H](CC(C)C)NC(=O)[C@H]1O[C@@H]1C(=O)O [loxistatin-acid]	103	95.6	93.1	99	100	101	95.8	101	91.5	105	93.4	98.3	104	103	104	99.4	98.7	101	101	105	103	107	99.4	102	101	> 10	> 10	> 10	> 10	> 10	0	0	0	0	0
c1ccc([C@@H]2C[C@H]2NC2CCNCC2)cc1 [GSK-LSD-1]	98.5	95.2	96.5	87.1	92.2	102	88	96.8	95.8	93.4	92.6	96.4	93	98.8	97.2	102	98.1	104	94.6	104	97.1	99.4	96.4	101	95.6	> 10	> 10	> 10	> 10	> 10	0	0	0	0	0
CC(C)(C)NCC(O)COc1cc(Cl)ccc1Cl (stereo not given) [cloranolol]	85.6	89.4	106	112	88.8	95	88.1	76.5	89.9	92.3	90.7	96.2	94.6	94.8	88.7	102	94.8	103	97.1	106	106	98.8	100	95.5	90	> 10	> 10	> 10	> 10	> 10	0	0	0	0	0
CCN1CCC[C@H]1CNC(=O)c1c(O)c(Cl)cc(Cl)c1OC [raclopride]	91.2	88.3	93.5	84	96.6	97.9	94	92.4	96.7	97.4	99.6	104	93.7	101	93.1	101	95.2	96.6	95	99.9	101	100	94.7	93	100	> 10	> 10	> 10	> 10	> 10	0	0	0	0	0
CCOC(=O)[C@H](CCc1ccccc1)N[C@@H](C)C(=O)N(CC(=O)O)C1Cc2ccccc2C1 [delapril]	106	103	98.2	111	95.4	98.6	101	92.3	90.6	106	105	102	98.3	96.7	98	100	93.1	103	98.6	98	107	102	111	107	99.7	> 10	> 10	> 10	> 10	> 10	0	0	0	0	0
